What all share (design): scale not given: the % may be the effect or the level left
Assay [1] concerns the target Cyclin-dependent kinase 1/cyclin B1 (Homo sapiens) (UniProt P06493+P14635). Put plainly: Inhibition of human CDK1/cyclinB assessed as enzyme activity at 30 uM using Histone H1 as substrate by [gamma-33P]-ATP assay relative to control. Format: protein-complex assay.
Assay [2] addresses T1, Serine/threonine-protein kinase haspin (Homo sapiens) (UniProt Q8TF76).
T1 sequence (whole entry): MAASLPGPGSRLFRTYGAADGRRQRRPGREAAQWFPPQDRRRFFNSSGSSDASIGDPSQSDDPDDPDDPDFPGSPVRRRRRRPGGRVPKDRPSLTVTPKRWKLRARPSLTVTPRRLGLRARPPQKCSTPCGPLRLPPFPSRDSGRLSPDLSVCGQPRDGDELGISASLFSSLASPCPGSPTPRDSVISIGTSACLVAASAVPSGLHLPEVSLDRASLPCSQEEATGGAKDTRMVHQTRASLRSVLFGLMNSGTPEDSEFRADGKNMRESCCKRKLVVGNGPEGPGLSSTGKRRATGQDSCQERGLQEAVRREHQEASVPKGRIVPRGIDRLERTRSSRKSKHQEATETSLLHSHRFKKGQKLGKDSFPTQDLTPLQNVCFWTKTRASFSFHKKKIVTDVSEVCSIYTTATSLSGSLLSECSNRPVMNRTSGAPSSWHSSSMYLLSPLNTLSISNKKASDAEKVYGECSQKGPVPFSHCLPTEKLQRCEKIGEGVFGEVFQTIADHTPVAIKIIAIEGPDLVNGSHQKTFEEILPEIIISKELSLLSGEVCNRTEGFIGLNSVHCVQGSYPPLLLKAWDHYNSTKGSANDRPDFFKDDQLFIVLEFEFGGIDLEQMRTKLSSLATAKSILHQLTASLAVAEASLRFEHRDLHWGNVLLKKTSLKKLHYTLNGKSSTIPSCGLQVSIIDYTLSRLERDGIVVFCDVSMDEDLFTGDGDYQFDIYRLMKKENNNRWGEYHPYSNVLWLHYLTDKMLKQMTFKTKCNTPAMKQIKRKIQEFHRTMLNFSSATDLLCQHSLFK
Description: Inhibition of human haspin assessed as enzyme activity at 30 uM using Histone H3 as substrate by [gamma-33P]-ATP assay relative to control.

Assay [3] deals with T2, Serine/threonine-protein kinase tousled-like 1 (Homo sapiens) (UniProt Q9UKI8).
T2 sequence (whole entry): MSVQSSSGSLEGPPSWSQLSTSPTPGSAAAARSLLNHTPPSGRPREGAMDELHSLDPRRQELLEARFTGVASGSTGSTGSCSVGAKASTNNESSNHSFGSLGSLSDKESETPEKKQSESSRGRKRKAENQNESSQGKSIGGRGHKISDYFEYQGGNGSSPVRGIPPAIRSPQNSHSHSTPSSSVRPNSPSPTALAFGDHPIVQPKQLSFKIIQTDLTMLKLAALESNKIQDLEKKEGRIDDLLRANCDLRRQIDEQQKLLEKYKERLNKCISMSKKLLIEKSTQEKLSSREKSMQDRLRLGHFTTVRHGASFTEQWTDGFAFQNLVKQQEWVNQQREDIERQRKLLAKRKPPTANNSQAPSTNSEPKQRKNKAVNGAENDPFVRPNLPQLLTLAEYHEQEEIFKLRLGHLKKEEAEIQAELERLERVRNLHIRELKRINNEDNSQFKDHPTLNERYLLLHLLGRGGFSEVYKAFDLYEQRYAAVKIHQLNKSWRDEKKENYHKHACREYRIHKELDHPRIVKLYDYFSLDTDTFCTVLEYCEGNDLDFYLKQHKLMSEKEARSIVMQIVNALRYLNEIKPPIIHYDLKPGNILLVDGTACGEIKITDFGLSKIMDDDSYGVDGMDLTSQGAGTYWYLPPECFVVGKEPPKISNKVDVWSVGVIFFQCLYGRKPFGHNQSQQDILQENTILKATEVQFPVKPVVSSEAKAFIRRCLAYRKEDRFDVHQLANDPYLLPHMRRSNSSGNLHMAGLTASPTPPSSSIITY
Description: Inhibition of human TLK1 assessed as enzyme activity at 30 uM using Histone H3 as substrate by [gamma-33P]-ATP assay relative to control.

The target of assay [4] is T3, NUAK family SNF1-like kinase 1 (Homo sapiens) (UniProt O60285).
T3 sequence (whole entry): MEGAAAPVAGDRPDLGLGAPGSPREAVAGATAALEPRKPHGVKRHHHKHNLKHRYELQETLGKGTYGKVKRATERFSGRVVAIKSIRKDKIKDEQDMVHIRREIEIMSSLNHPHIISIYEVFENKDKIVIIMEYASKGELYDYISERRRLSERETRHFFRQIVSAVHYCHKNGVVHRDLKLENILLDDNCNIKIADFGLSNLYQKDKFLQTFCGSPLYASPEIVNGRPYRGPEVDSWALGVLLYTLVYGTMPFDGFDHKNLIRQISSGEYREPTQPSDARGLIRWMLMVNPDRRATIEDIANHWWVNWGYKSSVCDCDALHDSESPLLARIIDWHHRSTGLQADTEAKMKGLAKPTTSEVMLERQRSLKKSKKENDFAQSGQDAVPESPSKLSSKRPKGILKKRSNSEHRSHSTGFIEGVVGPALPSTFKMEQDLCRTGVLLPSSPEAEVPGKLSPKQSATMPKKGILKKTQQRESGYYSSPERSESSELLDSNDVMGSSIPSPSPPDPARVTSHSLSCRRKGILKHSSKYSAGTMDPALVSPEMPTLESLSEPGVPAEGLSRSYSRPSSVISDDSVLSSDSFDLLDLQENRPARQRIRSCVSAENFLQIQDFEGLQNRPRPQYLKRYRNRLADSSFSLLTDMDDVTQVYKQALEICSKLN
Description: Inhibition of human ARK5 assessed as enzyme activity at 30 uM using KKKVSRSGLYRSPSMPENLNRPR as substrate by [gamma-33P]-ATP assay relative to control.

Sequence of Cyclin-dependent kinase 1/cyclin B1 (Homo sapiens) (P06493 whole entry, looked up): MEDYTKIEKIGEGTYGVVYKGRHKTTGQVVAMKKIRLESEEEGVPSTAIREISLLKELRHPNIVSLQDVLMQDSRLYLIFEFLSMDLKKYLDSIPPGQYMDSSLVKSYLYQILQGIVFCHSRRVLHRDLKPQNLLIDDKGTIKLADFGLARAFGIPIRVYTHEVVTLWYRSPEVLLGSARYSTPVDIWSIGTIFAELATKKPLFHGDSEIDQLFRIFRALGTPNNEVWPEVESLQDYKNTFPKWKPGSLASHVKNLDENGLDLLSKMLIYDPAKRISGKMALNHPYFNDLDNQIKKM
Sequence of Cyclin-dependent kinase 1/cyclin B1 (Homo sapiens) (P14635 whole entry, looked up): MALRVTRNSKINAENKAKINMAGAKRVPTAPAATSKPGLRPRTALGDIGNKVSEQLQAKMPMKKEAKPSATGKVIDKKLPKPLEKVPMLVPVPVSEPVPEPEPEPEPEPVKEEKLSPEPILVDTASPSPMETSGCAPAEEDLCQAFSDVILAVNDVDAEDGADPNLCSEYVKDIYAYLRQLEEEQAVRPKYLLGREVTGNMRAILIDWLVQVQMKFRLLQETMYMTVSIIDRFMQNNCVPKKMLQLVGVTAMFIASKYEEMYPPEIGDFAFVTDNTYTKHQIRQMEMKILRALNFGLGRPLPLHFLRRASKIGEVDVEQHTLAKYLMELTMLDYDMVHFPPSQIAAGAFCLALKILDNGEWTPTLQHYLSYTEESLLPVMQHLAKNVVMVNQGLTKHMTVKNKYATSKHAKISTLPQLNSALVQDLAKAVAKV

`O=C1C=CC2(C=C1)OCC(Cc1cc(C(F)(F)F)cc(C(F)(F)F)c1)C(=O)N2c1ccccc1` (centres undefined): the Activity lay within 45.4 to 46.5% in assay [1], 66.1 to 66.8% in assay [2], 57.3 to 58.6% in assay [3] and 70.7 to 70.8% in assay [4].

(Values after ChEMBL document CHEMBL4411276, “Chemistry-oriented synthesis (ChOS) and target deconvolution on neuroprotective effect of a novel scaffold, oxaza spiroquinone” (Eur J Med Chem, 2019).)
